Assay results from patent US20260028390A1, “ALPHA1-ANTITRYPSIN FOR USE IN THE TREATMENT OF DISEASES OR DISORDERS OF THE NERVOUS SYSTEM SUCH AS CHRONIC INFLAMMATORY DEMYELINATING POLYNEUROPATHY” (Ageronix SA, priority 2022, published 2026).
Several values for one entry are separate records, joined by “and”; a condition that tells them apart may be missing. Identical values can stand only once.

Experiments:
CIDP mice = assay: Sciatic nerve histology, CIDP mouse model; format: in vivo
Procedure: C57BL/6 mice were received at 8 weeks of age and housed under controlled conditions for the duration of the study. Three groups of 4 animals each were assigned to the following subcutaneous treatments twice daily at 7:00 AM and 7:00 PM for 2 weeks, from 20 to 35 days after the start of disease induction: • Wild type (WT) mice receiving the vehicle, 0.9% NaCl (positive control) • CIDP mice receiving the vehicle, 0.9% NaCl (negative control) • CIDP mice receiving human AAT (AAT), 50 mg/kg per injection
Disease induction consisted in subcutaneous injection of mouse sciatic nerve homogenate in phosphate buffer saline (PBS)+Freund's adjuvant mixture at 10 mL/kg. For each treatment, 3 different body sites injections were performed. Control mice also received three subcutaneous injections of PBS+Freund's adjuvant at the same 3 different body sites.
On the first (Day 20) and last (Day 35) day of treatment, the neuromuscular and performance of animals was tested with a rotarod test, grip test and a sensory test using the Von Frey filament test, as well as sciatic nerve electrophysiology test. After the last treatment at Day 35, these tests were repeated, animals were sacrificed and the left sciatic nerve was sampled for histological evaluation of the number and size of […].

[1] = tested on: C3-PMP22 transgenic mice (CMT1A); assay: Sciatic nerve histology, CMT1A mouse study (50 mg/kg twice daily); format: in vivo; details: 8 weeks old
Procedure: Animals were split in 3 groups (wild-type control (subcutaneous 0.9% NaCl), CMT1A-vehicle (subcutaneous 0.9% NaCl), CMT1A-human alpha-1 antitrypsin (subcutaneous, twice daily, 50 mg/kg per injection)) of 3 mice each (3 weeks old males of 18±2.5 g at the beginning of study) and all went through the following protocol after 7 days of acclimation on site.
On the first and last day of treatment, the neuromuscular performance of animals was tested with a rotarod test, grip test and sciatic nerve electrophysiology test. After the last treatment at 8 weeks, these tests were repeated, and animals were sacrificed and the left sciatic nerve was sampled for histological evaluation of the number and size of […].

[2] = tested on: CMT1A mice B6.Cg-Tg(PMP22)C3Fbas/J; assay: Rotarod latency to fall, CMT mice treated with AAT 180 mg/kg/day sc; format: in vivo, mouse
Procedure: CMT MOUSE MODEL: Non-humanized CMT1A mice B6.Cg-Tg(PMP22)C3Fbas/J (three copies of the PMP22 gene), three groups of 8 animals each.
DOSAGE: 180 mg/kg/day non-clinical grade AAT (Sigma)
ADMINISTRATION: Subcutaneous (SC) (bi-daily injection of 90 mg/kg)
Animals were received at 6 weeks of age and housed under controlled conditions for the duration of the study. The study comprised two groups of 8 transgenic mice (CMT mice) each and one group of 8 age matched wild type (WT) C57B16 mice, serving as positive control. Animals were assigned to the following subcutaneous treatments twice daily at 7:00 AM and 7:00 PM for 2 weeks, starting from 8 weeks and up to 10 weeks of age: • Wild-type (WT, no disease) mice receiving vehicle, 0.9% NaCl (positive control) • CMT1A mice receiving vehicle, 0.9% NaCl (negative control) • CMT1A mice receiving AAT at 90 mg/kg per injection (daily dose 180 mg/kg)
The efficacy parameters included: • neuromuscular performance (rotarod latency to fall and grip strength test), • sciatic nerve electrophysiology (CMAP amplitude and NCV) • cytokine (IL-6 and TNFα), as well as NfL analysis • sciatic nerve histology (number of axons and axonal diameter),
On the first day of treatment (Day 1), the neuromuscular and performance of animals was tested with a rotarod test and a grip strength test, as well as sciatic nerve electrophysiology test, which measured the compound muscle action potential (CMAP) and the nerve conduction velocity (NCV). After the last treatment on Day 15, these tests were repeated. Animals were then left untreated for 2 additional weeks to evaluate the duration of the treatment effect. Following the 2-week treatment-free period until 12 weeks of age (Day 30), the behavioural and electrophysiological tests were repeated.

[3] = tested on: CMT1A mice B6.Cg-Tg(PMP22)C3Fbas/J; assay: Sciatic nerve electrophysiology (CMAP, NCV), CMT mice treated with AAT 180 mg/kg/day sc; format: in vivo, mouse; details: 6 weeks old, CMT + hAAT
Microglial (HMC3) cells = assay: IL6 and IL1B gene expression (qPCR) in IFNγ-induced microglia; format: cell-based, human; details: HMC3, IFNγ 10 ng/mL 24 h; AAT 25 μM or peptides 50 μM
Procedure: Microglial (HMC3) cells were seeded into 96-well plates at a density of approximately 2500 cells/well. Plasma derived AAT (Sigma, 25 μM) or peptide 8, peptide 9 or peptide 14 (Syngene, 50 μM) were added, and microglial activation was induced with interferon gamma (IFNγ) (10 ng/mL) for 24 h with no preincubation. Then, the RNA was extracted (RNAeasy mini kit, Qiagen) and the expression of the Interleukin-6 (IL6) and Interleukin-Ibeta (ILIB) genes were analysed. qPCR was performed with Syber green POWER UP master mix using 10 ng/well of cDNA in all gene expression results.

[4] = CIDP mice, day 35, AAT 50 mg/kg sc twice daily
[5] = CMT1A + AAT, 50 mg/kg twice daily sc
[6] = CMT1A mice, AAT 50 mg/kg sc twice daily
[7] = 8 weeks old, CMT + hAAT 180 mg/kg/day SC, individual animal

alpha1-antitrypsin (AAT) protein
axonal diameter compared to the CIDP+vehicle treated group (CIDP mice; CIDP + AAT, day 35): significant increase
g-ratio compared to the CIDP+vehicle treated group (CIDP mice; CIDP + AAT, day 35): decrease
total number of axons per surface compared to the vehicle treated group (CIDP mice; CIDP + AAT, day 35): Slight but non-significant increase
Sciatic nerve histology, Axonal diameter (Mean ± SEM) (CIDP mice; [4]): 3.82 ± 0.09 μm
Sciatic nerve histology, Axons/100 μm^2 (Mean ± SEM) (CIDP mice; [4]): 26.00 ± 2.10
Sciatic nerve histology, g-ratio (Mean ± SEM) (CIDP mice; [4]): 0.715 ± 0.008
axonal diameter compared to the vehicle treated group [1, 5]: significant increase
g-ratio compared to the vehicle treated group [1, 5]: decrease
total number of axons per surface compared to the vehicle group [1, 5]: Slight increase
Sciatic nerve histology, Axonal diameter (Mean ± SEM) [1, 6]: 2.53 ± 0.15 ^††† μm
Sciatic nerve histology, Axons/100 μm^2 (Mean ± SEM) [1, 6]: 39.33 ± 4.81
Sciatic nerve histology, g-ratio (Mean ± SEM) [1, 6]: 0.63 ± 0.009 ^†††
Rotarod latency (Mean ± SD) ([2]; 8 weeks old (baseline, Day 1), CMT1A + AAT): 38.76 ± 4.90 s
Rotarod latency, group Mean ([2]; 8 weeks old, CMT + hAAT 180 mg/kg/day SC, 8 animals): 62.63 s
Rotarod latency, Mean/animal [2, 7]: 63.15 s and 51.81 s and 53.95 s and 52.25 s and 38.51 s and 92.09 s and 74.02 s and 75.23 s
Rotarod latency, set 1 [2, 7]: 55.48 s and 48.88 s and 60.00 s and 47.76 s and 30.45 s and 96.29 s and 74.06 s and 68.88 s
Rotarod latency, set 2 [2, 7]: 61.08 s and 61.14 s and 48.80 s and 53.19 s and 62.45 s and 79.58 s and 65.45 s and 74.87 s
Rotarod latency, set 3 [2, 7]: 72.89 s and 45.41 s and 53.05 s and 55.82 s and 22.62 s and 100.40 s and 82.56 s and 81.93 s
Rotarod latency (Mean ± SD) ([2]; 10 weeks old (Day 15, after 2 weeks AAT 90 mg/kg sc twice daily)): 57.77 ± 19.19 s
rotarod latency to fall vs untreated group ([2]; 12 weeks of age, after 2-week treatment-free period): non-significantly different
Rotarod latency (Mean ± SD) ([2]; 12 weeks old (Day 30, after 2-week treatment-free period)): 36.92 ± 1.66 s
Amplitude, group MEAN ([3]; 8 mice): 6.628 mV
Amplitude ([3]; individual mouse): 7.828 mV and 3.009 mV and 5.770 mV and 5.919 mV and 7.925 mV and 8.742 mV and 6.803 mV and 7.028 mV
Conduction velocity ([3]; individual mouse): 31.949 m/s and 34.989 m/s and 30.328 m/s and 19.190 m/s and 18.114 m/s and 20.530 m/s and 26.247 m/s and 28.783 m/s
T1 distal ([3]; individual mouse): 7.416 ms and 5.701 ms and 12.428 ms and 5.913 ms and 6.041 ms and 3.664 ms and 4.204 ms and 3.385 ms
T2 proximal ([3]; individual mouse): 7.885 ms and 6.130 ms and 12.922 ms and 6.694 ms and 6.869 ms and 4.395 ms and 4.775 ms and 3.906 ms
IL1B expression reduced by (Microglial (HMC3) cells): 60-70%
IL6 expression reduced by (Microglial (HMC3) cells): 30-40%
